# Measured values as given in patent US20250019387A1 (Frontier Medicines Corporation, priority 0001, published 2025).
# Target: KRAS G12C and cRAF (Ras-binding domain) interaction (Homo sapiens (Human), UniProt P01116, C118S/C51S/C80L/G12C)
# Assay: Inhibition of KRAS G12C and cRAF binding (AlphaScreen)
# Settings: GMPPNP-loaded KRAS G12C, 19-20 hours incubation with compound; read-out: IC50 (Inhibition of KRAS G12C and cRAF Binding)
# Outline: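 Compounds (DMSO) preincubated 19-20 h at room temperature, then RBD with streptavidin donor and glutathione acceptor beads added in 25 mM Hepes pH 7.4, 150 mM NaCl, 5 mM MgCl2, 0.01% Triton X-100, 2% DMSO for 60-90 min. Emission 570 nm (excitation 680 nm); IC50 by 4-parameter fit. Counter-screen used biotin-AviTag-GST instead of RBD.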
# Sequence of KRAS G12C and cRAF (Ras-binding domain) interaction (P01116 other isoform, or with tags, fused parts or gaps G12C/C51S/C80L/C118S): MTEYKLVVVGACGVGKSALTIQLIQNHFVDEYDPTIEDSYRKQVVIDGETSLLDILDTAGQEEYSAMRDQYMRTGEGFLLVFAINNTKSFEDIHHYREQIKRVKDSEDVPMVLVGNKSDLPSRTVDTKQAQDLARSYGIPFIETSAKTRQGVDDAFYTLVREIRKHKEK
row,IC50 [nM],Structure (SMILES)
1,100 to 500,"C=CC(=O)N1C[C@H](N(C)c2nc(OC[C@@]34CCCN3C[C@H](F)C4)nc3c(F)c(-c4cccc5cccc(Cl)c45)ncc23)C[C@@H]1CC#N [Example 87, 2-((2R,4R)-1-acryloyl-4-((7-(8-chloronaphthalen-1-yl)-8-fluoro-2-(((2R,7aS)-2-fluorotetrahydro-1H-pyrrolizin-7a(5H)-yl)methoxy)pyrido[4,3-d]pyrimidin-4-yl)(methyl)amino)pyrrolidin-2-yl)acetonitrile]"
2,< 10,"CN(c1nc(OC[C@@]23CCCN2C[C@H](F)C3)nc2c(F)c(-c3cccc4ccc(F)c(Cl)c34)ncc12)[C@@H]1CCN(C(=O)/C=C/c2nc(C(C)(C)O)no2)C1 [Example 88, (E)-1-((R)-3-((7-(8-chloro-7-fluoronaphthalen-1-yl)-8-fluoro-2-(((2R,7aS)-2-fluorotetrahydro-1H-pyrrolizin-7a(5H)-yl)methoxy)pyrido[4,3-d]pyrimidin-4-yl)(methyl)amino)pyrrolidin-1-yl)-3-(3-(2-hydroxypropan-2-yl)-1,2,4-oxadiazol-5-yl)prop-2-en-1-one]"
3,10 to 100,"CN(CC1CN(C(=O)/C=C/CN2CCOCC2)C1)c1nc(OC[C@@]23CCCN2C[C@H](F)C3)nc2c(F)c(-c3cccc4cccc(Cl)c34)ncc12 [Example 89, (E)-1-(3-(((7-(8-chloronaphthalen-1-yl)-8-fluoro-2-(((2R,7aS)-2-fluorotetrahydro-1H-pyrrolizin-7a(5H)-yl)methoxy)pyrido[4,3-d]pyrimidin-4-yl)(methyl)amino)methyl)azetidin-1-yl)-4-morpholinobut-2-en-1-one]"
4,10 to 100,"CN(c1nc(OC[C@@]23CCCN2C[C@H](F)C3)nc2c(F)c(-c3cccc4cccc(Cl)c34)ncc12)[C@@H]1CCN(C(=O)/C=C/CN2CCOCC2)C1 [Example 90, (E)-1-((R)-3-((7-(8-chloronaphthalen-1-yl)-8-fluoro-2-(((2R,7aS)-2-fluorohexahydro-1H-pyrrolizin-7a-yl)methoxy)pyrido[4,3-d]pyrimidin-4-yl)(methyl)amino)pyrrolidin-1-yl)-4-morpholinobut-2-en-1-one]"
5,100 to 500,"CN(CC1CN(C(=O)C#CCN2CCOCC2)C1)c1nc(OC[C@@]23CCCN2C[C@H](F)C3)nc2c(F)c(-c3cccc4cccc(Cl)c34)ncc12 [Example 91, 1-(3-(((7-(8-chloronaphthalen-1-yl)-8-fluoro-2-(((2R,7aS)-2-fluorotetrahydro-1H-pyrrolizin-7a(5H)-yl)methoxy)pyrido[4,3-d]pyrimidin-4-yl)(methyl)amino)methyl)azetidin-1-yl)-4-morpholinobut-2-yn-1-one]"
6,> 500,"CN(c1nc(OC[C@@]23CCCN2C[C@H](F)C3)nc2c(F)c(-c3cccc4cccc(Cl)c34)ncc12)[C@@H]1CCN(C(=O)C#CCN2CCOCC2)C1 [Example 92, 1-((R)-3-((7-(8-chloronaphthalen-1-yl)-8-fluoro-2-(((2R,7aS)-2-fluorohexahydro-1H-pyrrolizin-7a-yl)methoxy)pyrido[4,3-d]pyrimidin-4-yl)(methyl)amino)pyrrolidin-1-yl)-4-morpholinobut-2-yn-1-one]"
7,< 10,"CN(c1nc(OC[C@@]23CCCN2C[C@H](F)C3)nc2c(F)c(-c3cccc4cccc(Cl)c34)ncc12)[C@@H]1CCN(C(=O)/C=C/c2nc(C3(C)COC3)no2)C1 [Example 95, (E)-1-((R)-3-((7-(8-chloronaphthalen-1-yl)-8-fluoro-2-(((2R,7aS)-2-fluorotetrahydro-1H-pyrrolizin-7a(5H)-yl)methoxy)pyrido[4,3-d]pyrimidin-4-yl)(methyl)amino)pyrrolidin-1-yl)-3-(3-(3-methyloxetan-3-yl)-1,2,4-oxadiazol-5-yl)prop-2-en-1-one]"
8,100 to 500,"CN(c1nc(OC[C@@]23CCCN2C[C@H](F)C3)nc2c(F)c(-c3cccc4ccc(F)c(Cl)c34)ncc12)[C@@H]1CCN(C(=O)/C=C/CN2CCOCC2)C1 [Example 96, (E)-1-((R)-3-((7-(8-chloro-7-fluoronaphthalen-1-yl)-8-fluoro-2-(((2R,7aS)-2-fluorotetrahydro-1H-pyrrolizin-7a(5H)-yl)methoxy)pyrido[4,3-d]pyrimidin-4-yl)(methyl)amino)pyrrolidin-1-yl)-4-morpholinobut-2-en-1-one]"
9,10 to 100,"CC(C)c1noc(/C=C/C(=O)N2CC[C@@H](N(C)c3nc(OC[C@@]45CCCN4C[C@H](F)C5)nc4c3CCN(c3cccc5ccc(F)c(Cl)c35)C4)C2)n1 [Example 99, (E)-1-((R)-3-((7-(8-chloro-7-fluoronaphthalen-1-yl)-2-(((2R,7aS)-2-fluorohexahydro-1H-pyrrolizin-7a-yl)methoxy)-5,6,7,8-tetrahydropyrido[3,4-d]pyrimidin-4-yl)(methyl)amino)pyrrolidin-1-yl)-3-(3-isopropyl-1,2,4-oxadiazol-5-yl)prop-2-en-1-one]"
10,< 10,"CN(c1nc(OCC23CCCN2CCC3)nc2c(F)c(-c3cccc4cccc(Cl)c34)ncc12)[C@@H]1CCN(C(=O)/C=C/c2nc(C(F)(F)F)no2)C1 [Example 100, (R,E)-1-(3-((7-(8-chloronaphthalen-1-yl)-8-fluoro-2-((tetrahydro-1H-pyrrolizin-7a(5H)-yl)methoxy)pyrido[4,3-d]pyrimidin-4-yl)(methyl)amino)pyrrolidin-1-yl)-3-(3-(trifluoromethyl)-1,2,4-oxadiazol-5-yl)prop-2-en-1-one]"
11,< 10,"CN(c1nc(OCC23CCCN2CCC3)nc2c(F)c(-c3cccc4cccc(Cl)c34)ncc12)[C@@H]1CCN(C(=O)/C=C/c2nc(C3(C)CC3)no2)C1 [Example 101, (R,E)-1-(3-((7-(8-chloronaphthalen-1-yl)-8-fluoro-2-((hexahydro-1H-pyrrolizin-7a-yl)methoxy)pyrido[4,3-d]pyrimidin-4-yl)(methyl)amino)pyrrolidin-1-yl)-3-(3-(1-methylcyclopropyl)-1,2,4-oxadiazol-5-yl)prop-2-en-1-one]"
12,10 to 100,"CN(c1nc(OC[C@@]23CCCN2C[C@H](F)C3)nc2c(F)c(-c3cccc4ccc(F)c(Cl)c34)ncc12)[C@@H]1CCN(C(=O)/C=C/C2CCCN2)C1 (stereo partly drawn) [Example 102, (E)-1-((R)-3-((7-(8-chloro-7-fluoronaphthalen-1-yl)-8-fluoro-2-(((2R,7aS)-2-fluorotetrahydro-1H-pyrrolizin-7a(5H)-yl)methoxy)pyrido[4,3-d]pyrimidin-4-yl)(methyl)amino)pyrrolidin-1-yl)-3-(pyrrolidin-2-yl)prop-2-en-1-one]"
13,10 to 100,"CN(c1nc(OC[C@@]23CCCN2C[C@H](F)C3)nc2c(F)c(-c3cccc4ccc(F)c(Cl)c34)ncc12)[C@@H]1CCN(C(=O)/C=C/C2CCN2)C1 (stereo partly drawn) [Example 103, (E)-3-(azetidin-2-yl)-1-((R)-3-((7-(8-chloro-7-fluoronaphthalen-1-yl)-8-fluoro-2-(((2R,7aS)-2-fluorotetrahydro-1H-pyrrolizin-7a(5H)-yl)methoxy)pyrido[4,3-d]pyrimidin-4-yl)(methyl)amino)pyrrolidin-1-yl)prop-2-en-1-one]"
14,100 to 500,"CN(CC1CN(C(=O)/C=C/c2nc(C3CC3)no2)C1)c1nc(OC[C@@]23CCCN2C[C@H](F)C3)nc2c(F)c(-c3cccc4cccc(Cl)c34)ncc12 [Example 104, (E)-1-(3-(((7-(8-chloronaphthalen-1-yl)-8-fluoro-2-(((2R,7aS)-2-fluorotetrahydro-1H-pyrrolizin-7a(5H)-yl)methoxy)pyrido[4,3-d]pyrimidin-4-yl)(methyl)amino)methyl)azetidin-1-yl)-3-(3-cyclopropyl-1,2,4-oxadiazol-5-yl)prop-2-en-1-one]"
15,< 10,"CN(CC1CN(C(=O)/C=C/c2nc(C(C)(C)O)no2)C1)c1nc(OC[C@@]23CCCN2C[C@H](F)C3)nc2c(F)c(-c3cccc4cccc(Cl)c34)ncc12 [Example 105, (E)-1-(3-(((7-(8-chloronaphthalen-1-yl)-8-fluoro-2-(((2R,7aS)-2-fluorotetrahydro-1H-pyrrolizin-7a(5H)-yl)methoxy)pyrido[4,3-d]pyrimidin-4-yl)(methyl)amino)methyl)azetidin-1-yl)-3-(3-(2-hydroxypropan-2-yl)-1,2,4-oxadiazol-5-yl)prop-2-en-1-one]"
16,10 to 100,"CC(C)c1noc(/C=C/C(=O)N2CC(CN(C)c3nc(OC[C@@]45CCCN4C[C@H](F)C5)nc4c(F)c(-c5cccc6cccc(Cl)c56)ncc34)C2)n1 [Example 106, (E)-1-(3-(((7-(8-chloronaphthalen-1-yl)-8-fluoro-2-(((2R,7aS)-2-fluorotetrahydro-1H-pyrrolizin-7a(5H)-yl)methoxy)pyrido[4,3-d]pyrimidin-4-yl)(methyl)amino)methyl)azetidin-1-yl)-3-(3-isopropyl-1,2,4-oxadiazol-5-yl)prop-2-en-1-one]"
17,< 10,"CN(c1nc(OC[C@@]23CCCN2C[C@H](F)C3)nc2c(F)c(-c3cccc4cccc(Cl)c34)ncc12)[C@@H]1CCN(C(=O)/C=C/c2nc(C(C)(C)O)no2)C1 [Example 107, (E)-1-((R)-3-((7-(8-chloronaphthalen-1-yl)-8-fluoro-2-(((2R,7aS)-2-fluorotetrahydro-1H-pyrrolizin-7a(5H)-yl)methoxy)pyrido[4,3-d]pyrimidin-4-yl)(methyl)amino)pyrrolidin-1-yl)-3-(3-(2-hydroxypropan-2-yl)-1,2,4-oxadiazol-5-yl)prop-2-en-1-one]"

row,Structure (SMILES),IC50 [nM]
1,"C=CC(=O)N1CC(CN(C)c2nc(OC[C@@]34CCCN3C[C@H](F)C4)nc3c(F)c(-c4cc(O)cc5cccc(Cl)c45)ncc23)C1 [Example 97, 1-(3-(((7-(8-chloro-3-hydroxynaphthalen-1-yl)-8-fluoro-2-(((2R,7aS)-2-fluorotetrahydro-1H-pyrrolizin-7a(5H)-yl)methoxy)pyrido[4,3-d]pyrimidin-4-yl)(methyl)amino)methyl)azetidin-1-yl)prop-2-en-1-one]",< 10
